7 compounds from ChEMBL document CHEMBL1127356, “(Fluorocyclopropyl)quinolones. 2. Synthesis and Stereochemical structure-activity relationships of chiral 7-(7-amino-5-azaspiro[2.4]heptan-5-yl)-1-(2-fluorocyclopropyl)quinolone antibacterial agents” (J Med Chem, 1994) can be followed below.

One data set concerns Rattus norvegicus. Kind of data set: Urinary recovery by oral administration to rats in conjugate form of compound at 20 mg/kg. The class given is ADME, organism-based, Urine. Also noted: dose 20 mg/kg, route oral. As to conditions: in vivo.
Another data set deals with Serratia marcescens. Put plainly: Minimum inhibitory concentration in vitro against […]. The class given is functional.
Data set [1] deals with Enterobacter cloacae. Kind of data set: Minimum inhibitory concentration in vitro against […] (03400). Type of data set: functional.
The subject of data set [2] is Staphylococcus epidermidis. Put plainly: Minimum inhibitory concentration in vitro against […] (56556). The class given is functional.
For a further data set, the system named is Enterococcus faecalis. Kind of data set: Minimum inhibitory concentration in vitro against Streptococcus faecalis (ATCC 19433). The class given is functional.
Data set [3] in a line: Maximum concentration in plasma was determined by oral administration to rats at 20 mg/kg. The class given is ADME, organism-based. Also noted: dose 20 mg/kg, route oral. The note with it: rat.
A short description of data set [4]: Urinary recovery by oral administration to rats in unchanged form of compound at 20 mg/kg. Also noted: dose 20 mg/kg, route oral. As to conditions: rat, urine, read-out: Urinary recovery. Type of data set: ADME, organism-based.
Another data set concerns Proteus vulgaris. Kind of data set: Minimum inhibitory concentration in vitro against Proteus vulgaris (08601). Type of data set: functional.
For a further data set, the system named is Escherichia coli. Kind of data set: Minimum inhibitory concentration in vitro against Escherichia coli (NIHJ). Type of data set: functional.
The subject of a further data set is Streptococcus pyogenes. Kind of data set: Minimum inhibitory concentration in vitro against Streptococcus pyogenes (G36). Type of data set: functional. As to conditions: Streptococcus pyogenes; read-out: MIC.
The test system of the next data set is Pseudomonas aeruginosa. Kind of data set: Minimum inhibitory concentration in vitro against Pseudomonas aeruginosa (32104). Type of data set: functional.
The next data set has as its system Klebsiella pneumoniae. Put plainly: Minimum inhibitory concentration in vitro against Klebsiella pneumoniae (type-2). Type of data set: functional.
In data set [5] the test system is Staphylococcus aureus. Kind of data set: Minimum inhibitory concentration in vitro against […] (209P). Type of data set: functional.
Data set [6] has as its system Enterobacter cloacae. Kind of data set: Minimum inhibitory concentration in vitro against Enterobacter cloacae (03400). Type of data set: functional.
The test system of data set [7] is Staphylococcus aureus. Put plainly: microbe, parasite or virus in culture.
Description: Minimum inhibitory concentration against Streptococcus aureus (209P)
[8] abbreviates: Serratia marcescens, read-out: MIC.
The mark [9] stands for this setting: Staphylococcus epidermidis, read-out: MIC.
Setting [10] is: Enterococcus faecalis, ATCC 19433, read-out: MIC.
The mark [11] stands for this setting: Proteus vulgaris, read-out: MIC.
[12] abbreviates: Escherichia coli, read-out: MIC.
Setting [13] is: Pseudomonas aeruginosa, read-out: MIC.
[14] abbreviates: Klebsiella pneumoniae, read-out: MIC.
Setting [15] is: Staphylococcus aureus, read-out: MIC.
Where [16] appears, read: Enterobacter cloacae, read-out: MIC.

Converted amounts (≈) assume the structure as drawn. Some results are limits rather than exact numbers.

One may read the Cmax as the peak of the concentration-time curve. In the case of `N[C@@H]1CCN(c2c(F)cc3c(=O)c(C(=O)O)cn(C4CC4)c3c2Cl)C1`, the Urinary recovery with Rattus norvegicus worked out at 5%. The MIC in the data set on Serratia marcescens (setting [8]) is 0.025 µg/mL (≈ 0.0683 µM); against Enterobacter cloacae [1], 0.006 µg/mL (≈ 0.0164 µM); in data set [2] (setting [9]), 0.05 µg/mL (≈ 0.137 µM); in the data set on Enterococcus faecalis (setting [10]), 0.1 µg/mL (≈ 0.273 µM); in the data set on Proteus vulgaris (setting [11]), 0.006 µg/mL (≈ 0.0164 µM); in the data set on Escherichia coli (setting [12]), less than 0.006 µg/mL. Further, the MIC in the data set on Streptococcus pyogenes came to 0.1 µg/mL (≈ 0.273 µM); in the data set on Pseudomonas aeruginosa (setting [13]), 0.05 µg/mL (≈ 0.137 µM); with Klebsiella pneumoniae (setting [14]) it was 0.025 µg/mL (≈ 0.0683 µM); with Staphylococcus aureus [5] (setting [15]) it was 0.025 µg/mL (≈ 0.0683 µM). For the same compound, the maximum concentration (Cmax) in data set [3] amounted to 3900 ng/mL. In addition, the dose excreted in [4] came out at 24%.
With `NC1CN(c2c(F)cc3c(=O)c(C(=O)O)cn([C@@H]4C[C@@H]4F)c3c2Cl)CC12CC2` (single isomer, unassigned) [SITAFLOXACIN ANHYDROUS], the Urinary recovery with Rattus norvegicus was 1%. In addition, the MIC in the data set with Serratia marcescens (setting [8]) was 0.025 µg/mL (≈ 0.061 µM); in data set [2] (setting [9]) it was 0.025 µg/mL (≈ 0.061 µM); with Enterococcus faecalis (setting [10]) it was 0.1 µg/mL (≈ 0.244 µM); with Proteus vulgaris (setting [11]), 0.006 µg/mL (≈ 0.0146 µM); with Escherichia coli (setting [12]) it was less than 0.006 µg/mL; in the data set on Streptococcus pyogenes it was 0.05 µg/mL (≈ 0.122 µM). Moreover, the MIC stood at 0.05 µg/mL (≈ 0.122 µM) with Pseudomonas aeruginosa (setting [13]), 0.006 µg/mL (≈ 0.0146 µM) with Enterobacter cloacae [6] (setting [16]), 0.025 µg/mL (≈ 0.061 µM) in the data set with Klebsiella pneumoniae (setting [14]) and 0.013 µg/mL (≈ 0.0317 µM) in the data set with Staphylococcus aureus [5] (setting [15]). For the same compound, in [3], the peak level (Cmax) was 2600 ng/mL. Also, the dose excreted in data set [4] came to 22%.
On to `N[C@H]1CN(c2c(F)cc3c(=O)c(C(=O)O)cn(C4CC4F)c3c2Cl)CC12CC2` (stereo in doubt; 39), for which the MIC with Serratia marcescens turned out to be 0.39 µg/mL (≈ 0.952 µM); in [2], 0.78 µg/mL (≈ 1.9 µM); with Enterococcus faecalis, 6.25 µg/mL (≈ 15.3 µM); against Proteus vulgaris, 0.1 µg/mL (≈ 0.244 µM); in the data set on Escherichia coli, 0.05 µg/mL (≈ 0.122 µM); with Pseudomonas aeruginosa, 1.56 µg/mL (≈ 3.81 µM). The results for the MIC against Enterobacter cloacae [6], with Klebsiella pneumoniae and against Staphylococcus aureus [5] were 0.1 µg/mL (≈ 0.244 µM), 0.39 µg/mL (≈ 0.952 µM) and 0.78 µg/mL (≈ 1.9 µM), respectively.
As to `N[C@H]1CN(c2c(F)cc3c(=O)c(C(=O)O)cn(C4CC4F)c3c2Cl)CC12CC2` (stereo in doubt; 40), the MIC in the data set on Serratia marcescens (setting [8]) is 0.78 µg/mL (≈ 1.9 µM); in data set [2], 3.13 µg/mL (≈ 7.64 µM); with Enterococcus faecalis (setting [10]), more than 12.5 µg/mL; in the data set on Proteus vulgaris, 0.39 µg/mL (≈ 0.952 µM); against Escherichia coli, 0.39 µg/mL (≈ 0.952 µM); with Streptococcus pyogenes, more than 12.5 µg/mL. The MIC was determined as 6.25 µg/mL (≈ 15.3 µM) in the data set with Pseudomonas aeruginosa, 0.78 µg/mL (≈ 1.9 µM) with Enterobacter cloacae [6], 1.56 µg/mL (≈ 3.81 µM) in the data set with Klebsiella pneumoniae and 3.13 µg/mL (≈ 7.64 µM) against Staphylococcus aureus [5].
As to `N[C@H]1CN(c2c(F)cc3c(=O)c(C(=O)O)cn(C4CC4)c3c2Cl)CC12CC2`, the Urinary recovery in the data set with Rattus norvegicus is 7%. For the same compound, the MIC in the data set with Serratia marcescens (setting [8]) is 0.025 µg/mL (≈ 0.0638 µM); in [2] (setting [9]), 0.025 µg/mL (≈ 0.0638 µM); with Enterococcus faecalis (setting [10]), 0.1 µg/mL (≈ 0.255 µM); with Proteus vulgaris (setting [11]) it was 0.006 µg/mL (≈ 0.0153 µM); in the data set on Escherichia coli (setting [12]) it was less than 0.006 µg/mL; with Streptococcus pyogenes, 0.1 µg/mL (≈ 0.255 µM). For the same compound, the MIC with Pseudomonas aeruginosa (setting [13]) is 0.05 µg/mL (≈ 0.128 µM); in the data set on Enterobacter cloacae [6] (setting [16]), 0.006 µg/mL (≈ 0.0153 µM); with Klebsiella pneumoniae (setting [14]) it was 0.025 µg/mL (≈ 0.0638 µM); in the data set with Staphylococcus aureus [5] (setting [15]), 0.013 µg/mL (≈ 0.0332 µM). The same compound registered a Cmax in data set [3] of 3400 ng/mL. Besides, the dose excreted in data set [4] is 7%.
Consider `N[C@@H]1CN(c2c(F)cc3c(=O)c(C(=O)O)cn(C4C[C@H]4F)c3c2Cl)CC12CC2` (single isomer, unassigned), for which the MIC with Serratia marcescens (setting [8]) stood at 0.05 µg/mL (≈ 0.122 µM); in data set [2] (setting [9]), 0.05 µg/mL (≈ 0.122 µM); with Enterococcus faecalis (setting [10]) it was 0.2 µg/mL (≈ 0.488 µM); in the data set with Proteus vulgaris (setting [11]) it was 0.013 µg/mL (≈ 0.0317 µM); in the data set with Escherichia coli (setting [12]), 0.013 µg/mL (≈ 0.0317 µM); in the data set on Streptococcus pyogenes it was 0.2 µg/mL (≈ 0.488 µM). The MIC worked out at 0.2 µg/mL (≈ 0.488 µM) in the data set on Pseudomonas aeruginosa (setting [13]), 0.013 µg/mL (≈ 0.0317 µM) with Enterobacter cloacae [6] (setting [16]), 0.025 µg/mL (≈ 0.061 µM) with Klebsiella pneumoniae (setting [14]) and 0.025 µg/mL (≈ 0.061 µM) in the data set with Staphylococcus aureus [5] (setting [15]).
In the case of `O=C(O)c1cn(C2CC2)c2cc(N3CCNCC3)c(F)cc2c1=O` [CIPROFLOXACIN], the MIC in the data set with Serratia marcescens (setting [8]) amounted to 0.05 µg/mL (≈ 0.151 µM); in data set [2] (setting [9]), 0.2 µg/mL (≈ 0.604 µM); against Staphylococcus aureus [7], 0.1 µg/mL (≈ 0.302 µM); in the data set with Enterococcus faecalis (setting [10]) it was 1.56 µg/mL (≈ 4.71 µM); with Proteus vulgaris (setting [11]), 0.013 µg/mL (≈ 0.0392 µM); with Streptococcus pyogenes, 1.56 µg/mL (≈ 4.71 µM). Besides, the MIC in the data set with Pseudomonas aeruginosa (setting [13]) stood at 0.1 µg/mL (≈ 0.302 µM); with Klebsiella pneumoniae (setting [14]) it was 0.05 µg/mL (≈ 0.151 µM).
